Assay results as given in patent US12397031B2, “Lonicera japonica flower water extract-containing pharmaceutical composition for preventing or treating Helicobacter pylori infection” (GREEN CROSS WELLBEING CORPORATION, priority 2018, dated 2025).

Tests used:
[1] = test system: Helicobacter pylori (ATCC43504) strain; experiment: Antibacterial activity on Helicobacter pylori, paper disc clear zone; type: cell-based; conditions: 20 μl on 6 mm paper disc, 72 hours, pure inhibition zone
Experimental: A Helicobacter pylori (ATCC43504) strain was smeared in a Brucella Agar medium containing 10% horse serum, and cultured for 3 days in an incubator of 37° C. and 10% CO: conditions. […] The Examples and Comparative Examples were cultured for 72 hours in an incubator of 37° C. and 10% CO: conditions, and then diameters of generated clear zones were measured and diameters of pure inhibition zones removing perforated diameters were shown in Table 3.

[2] = test system: Helicobacter pylori; experiment: Selective antibacterial effect on Helicobacter pylori versus Escherichia coli and Staphylococcus aureus; type: cell-based; conditions: under the same condition

C=C[C@H]1[C@H](O[C@@H]2O[C@H](CO)[C@@H](O)[C@H](O)[C@H]2O)OC=C(C(=O)OC)[C@H]1CC(=O)O [Secoxyloganin, secoxyloganin]
Clear zone (mm) ([1]; 0.1 mg/ml): 5 mm | Clear zone (mm) ([1]; 1 mg/ml): 9 mm | Clear zone (mm) ([1]; 10 mg/ml): 13 mm | selective antibacterial effect on Helicobacter pylori than the antibacterial effect on Escherichia coli and Staphylococcus aureus [2]: ≥ 20 times
